Assay in all cases: NCI tumour cell line growth inhibition, 48 h
Experiment [1] deals with 786-0 renal.
Experiment [2] deals with SF-539 CNS.
In experiment [3] the test system is HT29 colon.
In experiment [4] the test system is UACC-257 melanoma.
Experiment [5] has as its system CAKI-1 renal.
Experiment [6] concerns HOP-62 NSCLC.
Experiment [7] concerns M14 melanoma.
For experiment [8], the system named is MDA-MB-435.
The subject of experiment [9] is NCI-H226 lung.
The test system of experiment [10] is RXF 393 renal.

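Method: 48-hour compound exposure of cells in 96-well plates, five concentrations, linear interpolation of endpoints. TGI: concentration producing complete growth inhibition.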

Regarding `C=CN(C=C)C(=O)Cn1cc(-c2ccccc2)nn1`, the TGI in [1], in experiment [2], in experiment [3], in experiment [4], in [5] and in experiment [6] was more than 100 µM in each case. The TGI in experiment [7] and in [8] was more than 100 µM each time.
With `CC(=O)Oc1ccn2nc(C)c(Br)c2c1`, the TGI in [1] is more than 100 µM; in experiment [2] it was more than 100 µM; in experiment [9] it was more than 100 µM; in experiment [3] it was more than 100 µM; in experiment [4] it was 99.5 µM; in [6], more than 100 µM. Further, the TGI was more than 100 µM in experiment [7], more than 100 µM in experiment [10] and more than 61.8 µM in experiment [8].
As for `O=c1c2ccc(Cl)cc2oc2c(CNc3ccc(S(=O)(=O)Nc4ncccn4)cc3)cccc12`, the TGI in [1], in [2], in experiment [9], in experiment [3], in [4] and in [5] was more than 100 µM in each case. Besides, the TGI in experiment [6], in [7] and in [8] was more than 100 µM throughout.
Take `NCCCCNCCCN1CCOC1=O`: the TGI in experiment [1], in [2], in experiment [9], in [3], in [4] and in experiment [5] was more than 100 µM each time. Besides, the TGI in [6], in experiment [7] and in [8] was more than 100 µM in each case.
For `CC(C)(C)c1ccnc(N=C2N=C(Nc3cc(C(C)(C)C)ccn3)c3ccccc32)c1`, the TGI in experiment [1] was 43.9 µM; in experiment [2] it was more than 100 µM; in [9], more than 100 µM; in [3], 75 µM; in experiment [4] it was 76.1 µM; in [5] it was 53.1 µM. The TGI was 75.5 µM in experiment [6], more than 100 µM in experiment [7] and 54.9 µM in experiment [10].
`C=C1C[C@@H]2O[C@H]3[C@H]4[C@@H](C[C@@H](C)[C@@H](OC(C)=O)[C@H]42)[C@@H](C)CO[C@@]3(C)[C@H](OC(=O)CCCCCCC)CC1=O`: the TGI in experiment [1] was 29.1 µM; in experiment [2] it was 38 µM; in [9] it was 42.9 µM; in experiment [3], more than 100 µM; in experiment [4] it was 30.7 µM; in [5] it was 33.5 µM. For the same compound, the results for the TGI in experiment [6], in experiment [7] and in experiment [8] were 29.8 µM, 29.1 µM and 30.8 µM, respectively.
On to `CN(C)CCCNC(=O)N/N=C/c1ccccc1`, for which the TGI in experiment [2], in [9], in [3], in experiment [4] and in [10] was more than 100 µM each time.
With `Cc1cc(-c2cc(C(C)(C)C)c(O)c(C(C)(C)C)c2)c(C)cc1-c1cc(C(C)(C)C)c(O)c(C(C)(C)C)c1`, the TGI in experiment [1], in [2], in experiment [9], in experiment [3], in experiment [4] and in experiment [5] was more than 100 µM each time. Moreover, the figures for the TGI in experiment [6], in experiment [7] and in experiment [8] were more than 100 µM, more than 100 µM and 32.7 µM, respectively.
As for `O=C(C(=C(I)I)c1ccccc1)c1ccccc1`, the TGI in [2] is 52.6 µM; in experiment [3], more than 100 µM; in experiment [4] it was more than 100 µM; in experiment [5], more than 100 µM; in experiment [6], 37.7 µM; in experiment [7], 73.3 µM. This compound also displayed a TGI in experiment [8] of more than 100 µM.
Consider `CN1c2ccccc2C2=C(c3ccccc3)CC[C@@H](C(=O)N3C4CC5CC[C@@]4(CS3(=O)=O)C5(C)C)[C@@H]21` (some centres not stated), for which the TGI in [1], in experiment [2], in experiment [9], in experiment [3], in [4] and in [5] was more than 100 µM each time. The TGI in experiment [6], in experiment [7] and in [8] was more than 100 µM in each case.
Take `CC(=O)/C(=N\Nc1ccc(Cl)cc1)C(C)=Nc1ccc(C)cc1`: the TGI in experiment [1] is more than 100 µM; in experiment [9] it was 83.7 µM; in experiment [3], 61.3 µM; in [4] it was more than 100 µM; in experiment [5], more than 100 µM; in [7], 58 µM. The TGI in experiment [10] was 95.8 µM; in experiment [8], more than 100 µM.
On to `COc1ccc(C2C=C(c3ccc(C)cc3)N(c3ccc(OC)cc3[N+](=O)[O-])C3C(=O)OC(=O)C23)c(OC)c1` (configuration not stated), for which the TGI was more than 100 µM in [1]; 53.2 µM in experiment [2]; more than 100 µM in experiment [9]; 86.4 µM in [3]; more than 100 µM in experiment [4]; more than 100 µM in experiment [5]. Moreover, the TGI in experiment [6], in experiment [7] and in experiment [8] was more than 100 µM throughout.
Take `CN(C)CCNCCCNc1c2ccccc2nc2cccc([N+](=O)[O-])c12`: the TGI in [1] was 0.106 µM; in experiment [2] it was 0.263 µM; in experiment [9], 0.102 µM; in experiment [3] it was less than 0.0277 µM; in experiment [4], 0.525 µM; in experiment [5], 0.331 µM. For the same compound, the TGI in experiment [6] is 0.154 µM; in experiment [7], 0.0654 µM; in experiment [8], 0.0313 µM.
For `CNC(=S)N1CCN(C(C)=O)C1=S`, the TGI was more than 100 µM in experiment [1]; 52.8 µM in [2]; 62 µM in experiment [9]; more than 100 µM in experiment [3]; more than 100 µM in experiment [4]; more than 100 µM in experiment [5]. Further, the TGI in experiment [6], in [7] and in experiment [8] was more than 100 µM in each case.
`COc1cc2c(c(OC)c1)[C@H](C)N(Cc1ccccc1)C(C)C2` (some centres not stated): the TGI was more than 100 µM in experiment [1]; 48.4 µM in [2]; 84.6 µM in experiment [9]; 75.2 µM in experiment [3]; more than 100 µM in experiment [4]; more than 100 µM in experiment [5]. The TGI is more than 100 µM in [6], more than 100 µM in [7] and 37.8 µM in experiment [8].
